Assay results taken from patent US20260337153A1, “IONIZABLE AMINE LIPIDS” (Intellia Therapeutics, Inc., priority 2023, published 2026).
Values joined by “and” are separate entries in the source; they are usually repeats but may differ in a detail not shown here. Equal values may be shown once. Read-outs that look alike come from different tables or passages of the source.

Key:
[1] = LNP encapsulation efficiency of RNA (Ribogreen fluorescence assay); format: physicochemical; settings: sgRNA:mRNA 1:2
Experimental: LNP compositions are analyzed for average particle size, polydispersity index (pdi), total RNA content, encapsulation efficiency of RNA, and zeta potential. LNP compositions may be further characterized by lipid analysis, AF4-MALS, NTA, and/or cryo-EM.
Encapsulation efficiency is calculated as (Total RNA−Free RNA)/Total RNA. A fluorescence-based assay (Ribogreen®, ThermoFisher Scientific) is used to determine total RNA concentration and free RNA. LNP samples are diluted appropriately with 1×TE buffer containing 0.2% Triton-X 100 to determine total RNA or 1×TE buffer to determine free RNA. Standard curves are prepared by utilizing the starting RNA solution used to make the compositions and diluted in 1×TE buffer+/−0.2% Triton-X 100. Diluted RiboGreen® dye (according to the manufacturer's instructions) is then added to each of the standards and samples and allowed to incubate for approximately 10 minutes at room temperature, in the absence of light. A SpectraMax M5 Microplate Reader (Molecular Devices) is used to read the samples with excitation, auto cutoff and emission wavelengths set to 488 nm, 515 nm, and 525 nm respectively. Total RNA and free RNA are determined from the appropriate standard curves. Alternatively, the total RNA concentration can be determined by a reverse-phase ion-pairing (RP-IP) HPLC method. Triton X-100 is used to disrupt the LNPs, releasing the RNA. The RNA is then separated from the lipid components chromatographically by RP-IP HPLC and quantified against a standard curve using UV absorbance at 260 nm.
In vivo editing efficiency for materials delivered with formulations including various amine lipid (or ionizable lipid) compounds in Experiments 1 through 14 as described in Tables 3 and 4 was assessed. Editing was measured using G000534 (SEQ ID NO: 5) which targets the rat TTR gene. Lipids described above were assessed for efficacy through in vivo editing experiments. LNPs were formulated at a 1:2 w/w ratio of sgRNA (SEQ ID NO: 5) and Cas9 mRNA (SEQ ID NO: 3). In Experiments 1 through 13, lipid components of the LNP are formulated in a molar ratio of 50% ionizable lipid, 38% cholesterol, 9% DSPC, and 3% PEG2K-DMG. In Experiment 14, lipid components of the LNP are formulated in a molar ratio of 50% ionizable lipid, 38% cholesterol, 9% DSPC, and 3% C13 Ether. The final LNPs used in different in vivo editing experiments were characterized to determine the encapsulation efficiency (% E), polydispersity index (PDI), and average particle size (Z-avg and number mean) according to the analytical methods provided above. The pKa values of each of the following ionizable lipids were also measured to be in the range of about 5.8 to about 7.6.
In vivo editing efficiency for materials delivered with formulations including various combinations of amine lipid (or ionizable lipid) and PEG lipid compounds was assessed as described in Tables 5 and 6. Editing was measured using G000534 (SEQ ID NO: 5) which targets the rat TTR gene. Lipids described above were assessed for efficacy through in vivo editing experiments. LNPs were formulated at a 1:2 w/w ratio of sgRNA (SEQ ID NO: 5) and Cas9 mRNA (SEQ ID NO:3). Lipid components of the LNP are formulated in a molar ratio of 50% ionizable lipid, 38% cholesterol, 9% DSPC, and 3% of various PEG lipids (e.g., PEG2K-DMG, C13 Ether, C14 Ether). The final LNPs used in different in vivo editing experiments were characterized to determine the encapsulation efficiency (% E), polydispersity index (PDI), and average particle size (Z-avg and number mean) according to the analytical methods provided above. The pKa values of each of the following ionizable lipids were also measured to be in the range of about 5.8 to about 7.6.
In vivo editing efficiency for materials delivered with formulations including various amine lipid (or ionizable lipid) compounds as described in Tables 7 and 8 was assessed. […]

[2] = pKa of unformulated amine lipid by TNS fluorescence; format: physicochemical; settings: sodium phosphate buffer, unformulated amine lipid, TNS, read-out: Lipid pKa
How it was run: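 Unformulated amine lipid was diluted from ethanol stock to approx. 100 μM in 0.1 M sodium phosphate buffers spanning pH 4.5–9.0 with TNS. Fluorescence read at ex 321/em 448 nm; normalized data fitted sigmoidally to give pKa.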

[3] = Table 3, Experiments 1-13, LNP 50% ionizable lipid, 38% cholesterol, 9% DSPC, 3% PEG2K-DMG
[4] = LNP with 50% ionizable lipid, 38% cholesterol, 9% DSPC, 3% C13 Ether (LNP #1, Compound 53: 3% PEG2K-DMG instead)
[5] = Table 3, Experiment 14, LNP with 3% C13 Ether
[6] = additional ionizable lipids (53-61)

% E (encapsulation efficiency) [1, 3]	pKa ([2]; Table 2)	pKa [2, 6]	Structure (SMILES)	further results
100%	6.8		CCCCCCCCC(CCCCCCCC)OC(=O)CCCC(=O)OCC(COC(=O)CCCC(=O)OC(CCCCCCCC)CCCCCCCC)COC(=O)OCCCN(C)C [Compound 31, O,O′-(2-((((3-(dimethylamino)propoxy)carbonyl)oxy)methyl)propane-1,3-diyl) di(heptadecan-9-yl) diglutarate]	
99%	5.7		CCCCCCCCC(CCCCCCCC)OC(=O)CCCC(=O)OCC(COC(=O)CCCC(=O)OC(CCCCCCCC)CCCCCCCC)COC(=O)OCCCN1CCCCC1 [Compound 32, di(heptadecan-9-yl) O,O′-(2-((((3-(piperidin-1-yl)propoxy)carbonyl)oxy)methyl)propane-1,3-diyl) diglutarate]	
100%	6.5		CCCCCCCCC(CCCCCCCC)OC(=O)CCCC(=O)OCC(COC(=O)CCCC(=O)OC(CCCCCCCC)CCCCCCCC)COC(=O)OCCCN1CCCC1 [Compound 33, di(heptadecan-9-yl) O,O′-(2-((((3-(pyrrolidin-1-yl)propoxy)carbonyl)oxy)methyl)propane-1,3-diyl) diglutarate]	% E (encapsulation efficiency) [1, 4]: 99%
	6.33		CCCCCCCCC(CCCCCCCC)OC(=O)CCCC(=O)OCC(COC(=O)CCCC(=O)OC(CCCCCCCC)CCCCCCCC)COC(=O)CCCN(C)C [Compound 34, O,O′-(2-(((4-(dimethylamino)butanoyl)oxy)methyl)propane-1,3-diyl) di(heptadecan-9-yl) diglutarate]	% E (encapsulation efficiency) [1, 5]: 98%
	6.83		CCCCCCCCC(CCCCCCCC)OC(=O)CCCC(=O)OCC(COC(=O)CCCC(=O)OC(CCCCCCCC)CCCCCCCC)OC(=O)NCCN(CC)CC [Compound 35, O,O′-(2-(((2-(diethylamino)ethyl)carbamoyl)oxy)propane-1,3-diyl) di(heptadecan-9-yl) diglutarate]	% E (encapsulation efficiency) [1, 5]: 99%
99%	6.66		CCCCCCC(CCCCCC)OC(=O)CCCC(=O)OCC(COC(=O)CCCC(=O)OC(CCCCCC)CCCCCC)COC(=O)NCCN(CC)CC [Compound 37, O,O′-(2-((((2-(diethylamino)ethyl)carbamoyl)oxy)methyl)propane-1,3-diyl) di(tridecan-7-yl) diglutarate]	
	5.97		CCCCCCCCC(CCCCCCCC)C(=O)OCC(COC(=O)NCCN(CC)CC)COC(=O)C(CCCCCCCC)CCCCCCCC [Compound 40, 2-((((2-(diethylamino)ethyl)carbamoyl)oxy)methyl)propane-1,3-diyl bis(2-octyldecanoate)]	% E (encapsulation efficiency) [1, 5]: 92%
97%	6.38		CCCCC/C=C\C/C=C\CCCCCCCC(=O)OCC(COC(=O)CCCC(=O)OC(CCCCCCCC)CCCCCCCC)COC(=O)N(C)CCN(CC)CC (centres unmarked) [Compound 49, 3-(((2-(diethylamino)ethyl)(methyl)carbamoyl)oxy)-2-((((9Z,12Z)-octadeca-9,12-dienoyl)oxy)methyl)propyl heptadecan-9-yl Glutarate]	
98%	6.6		CCCCC/C=C\C/C=C\CCCCCCCC(=O)OCC(COC(=O)CCCC(=O)OC(CCCCCCCC)CCCCCCCC)COC(=O)NCCN1CCCCCC1 (centres unmarked) [Compound 50, 3-(((2-(azepan-1-yl)ethyl)carbamoyl)oxy)-2-((((9Z,12Z)-octadeca-9,12-dienoyl)oxy)methyl)propyl heptadecan-9-yl Glutarate]	
99%	6.39		CCCCCCCCC(CCCCCCCC)OC(=O)CCCCCC(=O)OCC(CCCCCCCCC(=O)OCC(CCCC)CCCCCC)COC(=O)NCCN(CC)CC (centres unmarked) [Compound 51, 1-(11-((2-butyloctyl)oxy)-2-((((2-(diethylamino)ethyl)carbamoyl)oxy)methyl)-11-oxoundecyl) 7-(heptadecan-9-yl) heptanedioate]	
97%	6.47		CCCCCCCCC(CCCCCCCC)OC(=O)CCCCCCC(=O)OCC(COC(=O)CCCCCCC(=O)OC(CCCCCCCC)CCCCCCCC)COC(=O)NCCN(CC)CC [Compound 52, O′1,O1-(2-((((2-(diethylamino)ethyl)carbamoyl)oxy)methyl)propane-1,3-diyl) 8,8′-di(heptadecan-9-yl) di(octanedioate)]	% E (encapsulation efficiency) [1, 4]: 97%; % E (encapsulation efficiency) ([1]; Table 7, LNP with 3% C13 Ether): 97%
98% and 99% and 94% and 97%		6.2	CCCCC/C=C\C/C=C\CCCCCCCC(=O)OCC(COC(=O)CCC(OCCCCCCCC)OCCCCCCCC)COC(=O)OCCCN(CC)CC (centres unmarked) [Compound 53]	% E (encapsulation efficiency) [1, 4]: 98%; % E (encapsulation efficiency) ([1]; Table 5, PEG lipid C13 Ether): 97%; % E (encapsulation efficiency) ([1]; Table 5, PEG lipid C14 Ether): 99%; % E (encapsulation efficiency) ([1]; Table 5, PEG lipid PEG2K-DMG): 97%
88%		6.5	CCCCC/C=C\C/C=C\CCCCCCCC(=O)OCC(COC(=O)CCC(OCCCCCCCC)OCCCCCCCC)COC(=O)NCCN(CC)CC (centres unmarked) [Compound 54]	
84%		6.6	CCCCCCCCCOC(=O)CCCCCCCN(CCO)CCCCCCCC(=O)OC(CCCCCCCC)CCCCCCCC [Compound 55]	
95% and 97%		6.1	CCCCC/C=C\C/C=C\CCCCCCCC(=O)OCC(COC(=O)CCCC(=O)OC(CCCCCCCC)CCCCCCCC)COC(=O)OCCCN(CC)CC (centres unmarked) [Compound 56]	
96%		6.1	CCCCC/C=C\C/C=C\CCCCCCCC(=O)OCC(COC(=O)CCCCCC(=O)OC(CCCCCCCC)CCCCCCCC)COC(=O)OCCCN(CC)CC (centres unmarked) [Compound 57]	
87% and 90%		6.8	CCCCC/C=C\C/C=C\CCCCCCCC(=O)OCC(COC(=O)CCCC(=O)OC(CCCCCCCC)CCCCCCCC)COC(=O)NCCN(CC)CC (centres unmarked) [Compound 58]	
83% and 82%		6.8	CCCCC/C=C\C/C=C\CCCCCCCC(=O)OCC(COC(=O)CCCCCC(=O)OC(CCCCCCCC)CCCCCCCC)COC(=O)NCCN(CC)CC (centres unmarked) [Compound 59]	
97%		6.1	CCCCCCCCC(CCCCCCCC)OC(=O)CCCCCCC(=O)OCC(COC(=O)CCCCCCC(=O)OC(CCCCCCCC)CCCCCCCC)COC(=O)OCCCN(CC)CC [Compound 60]	% E (encapsulation efficiency) ([1]; Table 5, PEG lipid C13 Ether): 95%; % E (encapsulation efficiency) ([1]; Table 5, PEG lipid C14 Ether): 96%; % E (encapsulation efficiency) ([1]; Table 5, PEG lipid PEG2K-DMG): 96%
100%		7.4	CCCCCCCCC(CCCCCCCC)OC(=O)CCCCCCC(=O)OCC(COC(=O)CCCCCCC(=O)OC(CCCCCCCC)CCCCCCCC)COC(=O)NCCCN(CC)CC [Compound 61]	
